# Measured values reported in US5073571A, “Method of inhibiting virus” (priority 1989, dated 1991).
# Test system: MoMLV
# Experiment: MoMLV replication: LZ1 virus titer by histochemical staining of NIH 3T3 cells for β-galactosidase
# Type: cell-based, Maloney murine leukemia virus
# Conditions: up to 100 μM, 2 day treatment of LZ1 cells
# Excerpt: Panel A -Schematic representation of the MoMLV assay system. […] This cell produces infectious, replication defective virus (designated (LZ1) which carries the LacZ gene. When NIH3T3 cells are exposed to supernatant taken from the LZ1 virus producing cells, they are initially infected and their progeny are detectable by histochemical staining for β-galactosidase. Thus, the titer of the virus produced by the LZ1 cells after treatment with the various agents, can be readily determined by counting the number of blue NIH3T3 cells. Replication competent MoMLV is not detected using this assay system since the lacZ gene product is not present. Panel B - The effect of 6-oxamyristic acid and 13-oxamyristic acid on LZ1 virus production. The results represent the mean (+1 standard deviation) of three independent tests each done in duplicate. Panel C - Number of viable LZ1 producing cells at the end of a 2 day treatment with analog as measured by trypan blue exclusion. The results of duplicate assays were averaged. Panel D - The effects of analog treatment on incorporation of [^3 H]leucine. Cells in duplicate wells were pulse labeled for 4 h following three days of incubation with analog or ethanol (0.1%). Duplicate assays were performed. The results were averaged and expressed as a percentage of the results obtained from untreated cells.
# Assay of the Effects of Analogs on the Replication of Maloney Murine Leukemia Virus. The LZ1 titer assay was developed for rapid histochemical quantitation of infectious virus production. In brief, the LZ1 virus-producing cell line was derived by Sanes et al., EMBO J. 5, 3133-3142 (1986), from the .PSI.-2 cell line. .PSI.-2-cells are NIH 3T3 cells that contain a stably integrated packaging mutant (pMOV-.PSI.-) of MoMLV. This mutant has a deletion of 350 nucleotides between the 5' donor splice site for env and the initiator methionine codon for Pr65^gag [Mann et al., Cell 33, 153-159 (1983)]. The LZ1 cell line is a subclone of .PSI.-2 cells that were co-transfectd with pM-MuLV-SV-LacZ [Sanes et al., supra.]and pSVTK neoB and then selected for G418 (Geneticin®) antibiotic resistance and production of defective MoMLV containing the E. coli β-galactosidase gene [Sanes et al., supra.]. The recombinant virus produced by LZ1 cells is capable of primary infection of NIH 3T3 cells but is replication defective [Sanes et al., surpa.]. Infected NIH 3T3 containing the lac-Z gene can be identified by histochemical staining for β-galactosidase activity.
# To assess the effects of analog treatment on MoMLV replication, 1 × 10^5 LZ1 producing cells were added to each well of a 24-well tissue culture plate in 1 mL of Dulbecco's Modified Eagle's medium (DME) containing calf serum (final concentration =10%), penicillin (100 IU/mL), streptomycin (100 μg/mL) with or without analog (10-100 μM). After 24 h, the media was removed and fresh serum-containing media ±analog was added. The next day (48 hours after plating), the virus containing supernatant was removed and passed through a 0.2 μm filter. Various size aliquots (25-100 μL of the 1 mL filtrate) were added to 1 × 10^4 NIH 3T3 cells contained in 1 mL of DME/10% calf serum/penicillin/streptomycin. These indicator cells had been plated 24 h earlier in 24 well tissue culture plates. Polybrene (Sigma) was added at the same time as the filtrate so that its final concentration was 10 μg/mL. […]
structure (smiles),measurement,value
"COCCCCCCCCCCCC(=O)O [13-oxamyristate, 12-(Methoxy)dodecanoic acid]",effect on MoMLV replication,no effect on virus replication
